Experimental data published in US6277825A (priority 1999, dated 2001).
Several values for one entry are separate records, joined by “and”; a condition that tells them apart may be missing. Equal values may be shown once.

How the values were obtained:
CF No. 1 mice = conditions: mouse, in vivo
[1] = tested on: young (<2 weeks old) mice; assay type: in vivo; conditions: mouse, in vivo
[2] = tested on: young (<2 weeks old) mice; assay type: in vivo; conditions: mouse, in vivo; remark: listed apart in the source
[3] = tested on: young (<2 weeks old) mice; assay type: in vivo; conditions: mouse, in vivo; remark: listed apart in the source
[4] = tested on: Frings audiogenic seizure-susceptible mice; conditions: mouse, in vivo
CF #1 Mice = tested on: CF #1 Mice; set-up: TD50: unit not given beside the values; conditions: mouse, in vivo
NR1-1b/NR2B NMDA subtype = biological target: T1, NR1-1b/NR2B NMDA subtype (Homo sapiens, UniProt Q05586+Q13224); test: cell-based
T1 construct: expressed in transfected cells; host or cells: oocytes
T1 sequence (Q13224 27-1484, other chains not shown): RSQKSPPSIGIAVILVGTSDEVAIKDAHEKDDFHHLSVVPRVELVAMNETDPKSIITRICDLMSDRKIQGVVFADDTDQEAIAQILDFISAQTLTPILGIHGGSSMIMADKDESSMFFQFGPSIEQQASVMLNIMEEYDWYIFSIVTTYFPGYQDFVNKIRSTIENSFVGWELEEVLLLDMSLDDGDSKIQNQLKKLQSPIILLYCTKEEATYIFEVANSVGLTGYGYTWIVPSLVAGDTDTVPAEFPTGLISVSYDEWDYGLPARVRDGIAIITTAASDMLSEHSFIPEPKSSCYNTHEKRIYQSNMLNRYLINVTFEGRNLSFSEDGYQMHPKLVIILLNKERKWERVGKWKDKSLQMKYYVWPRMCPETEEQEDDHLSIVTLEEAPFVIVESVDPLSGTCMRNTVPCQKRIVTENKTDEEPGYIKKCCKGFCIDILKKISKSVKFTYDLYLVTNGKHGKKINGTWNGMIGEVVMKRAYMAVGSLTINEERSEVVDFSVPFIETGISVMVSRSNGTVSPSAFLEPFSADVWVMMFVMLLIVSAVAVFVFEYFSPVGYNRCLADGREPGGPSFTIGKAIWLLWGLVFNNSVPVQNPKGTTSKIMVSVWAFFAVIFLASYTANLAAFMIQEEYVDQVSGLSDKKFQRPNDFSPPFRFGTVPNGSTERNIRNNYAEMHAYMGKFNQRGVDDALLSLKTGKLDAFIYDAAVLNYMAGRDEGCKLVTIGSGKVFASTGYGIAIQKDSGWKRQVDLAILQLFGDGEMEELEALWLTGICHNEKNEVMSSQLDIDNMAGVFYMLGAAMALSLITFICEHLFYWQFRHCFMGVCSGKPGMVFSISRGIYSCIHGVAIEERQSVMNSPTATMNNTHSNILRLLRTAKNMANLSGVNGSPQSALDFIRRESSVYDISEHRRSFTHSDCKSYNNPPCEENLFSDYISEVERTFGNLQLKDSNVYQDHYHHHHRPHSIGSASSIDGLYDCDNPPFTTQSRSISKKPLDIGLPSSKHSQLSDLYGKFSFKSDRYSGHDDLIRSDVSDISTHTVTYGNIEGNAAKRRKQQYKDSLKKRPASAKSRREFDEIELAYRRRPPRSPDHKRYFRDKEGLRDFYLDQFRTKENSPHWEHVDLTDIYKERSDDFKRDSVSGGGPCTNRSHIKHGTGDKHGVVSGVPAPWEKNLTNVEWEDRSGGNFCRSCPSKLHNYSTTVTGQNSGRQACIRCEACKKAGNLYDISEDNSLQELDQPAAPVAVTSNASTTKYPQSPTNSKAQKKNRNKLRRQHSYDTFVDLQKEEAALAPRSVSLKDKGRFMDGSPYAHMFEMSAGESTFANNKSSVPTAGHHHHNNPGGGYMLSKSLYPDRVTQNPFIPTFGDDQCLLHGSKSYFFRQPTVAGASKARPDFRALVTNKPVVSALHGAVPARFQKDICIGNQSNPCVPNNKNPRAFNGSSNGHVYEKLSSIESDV

Row | Compound | anticonvulsant activity (CF No. 1 mice) | Sleepy Test, positive mice/tested [1] | Catalepsy Test, positive mice/tested [2] | Righting Reflex, mice that lost reflex/tested [3] | other results
1 | Conantokin Gm [Con Gm] | anticonvulsant activity |  |  |  | 
2 | Conantokin Qu [Con Qu] | anticonvulsant activity |  |  |  | 
3 | Conantokin Oc [Con Oc] |  | 2/3 and 0/3 | 0/3 | 0/3 | 
4 | Conantokin L [Con L] | anticonvulsant activity | 4/4 | 4/4 and 3/4 | 2/4 and 3/4 | 
5 | Conantokin Ca2 [Con Ca2] | anticonvulsant activity |  |  |  | 
6 | CC[C@H](C)[C@H](NC(=O)[C@H](CC(N)=O)NC(=O)[C@H](CC(C(=O)O)C(=O)O)NC(=O)[C@H](CCCNC(=N)N)NC(=O)[C@H](C)NC(=O)[C@H](CC(C)C)NC(=O)[C@H](CC(C(=O)O)C(=O)O)NC(=O)[C@H](C)NC(=O)[C@H](C)NC(=O)[C@H](CCSC)NC(=O)[C@H](CCCCN)NC(=O)[C@H](C)NC(=O)[C@@H](NC(=O)[C@H](CC(C(=O)O)C(=O)O)NC(=O)[C@H](CC(C(=O)O)C(=O)O)NC(=O)[C@H](CCC(=O)O)NC(=O)CN)C(C)C)C(=O)N[C@@H](C)C(=O)N[C@@H](CCCCN)C(=O)NCC(=O)N[C@H]1CSSC[C@@H](C(=O)N[C@@H](Cc2ccc(O)cc2)C(=O)N2CCC[C@H]2C(=O)O)NC(=O)[C@H](CC(N)=O)NC(=O)[C@H](C(C)C)NC(=O)[C@H](CCCCN)NC1=O [Con R, Conantokin R] |  |  |  |  | P.I. (TD50/ED50) [4]: 17; Protective Index, PI (TD50/ED50) [4]: 18; TD50 [4]: 0.228; protective index relative to that of valproic acid [4]: at least eight times better; P.I. (TD50/ED50) (CF #1 Mice): 3.6; TD50 (CF #1 Mice): ~ 0.300; Ki (NR1-1b/NR2B NMDA subtype): 140 nM; inhibition at 3 µM (NR1-1b/NR2B NMDA subtype; read-out: inhibition of the current produced in response to glutamate and glycine): ~95%
